Assays:
[1] = target: T1, CES2 (Homo sapiens, UniProt O00748); assay: Hydrolase activity by recombinant human CES2; assay type: in vitro ADME
T1 construct: purchased Cypex Ltd. (Scotland, United Kingdom)
T1 sequence (O00748 27-559): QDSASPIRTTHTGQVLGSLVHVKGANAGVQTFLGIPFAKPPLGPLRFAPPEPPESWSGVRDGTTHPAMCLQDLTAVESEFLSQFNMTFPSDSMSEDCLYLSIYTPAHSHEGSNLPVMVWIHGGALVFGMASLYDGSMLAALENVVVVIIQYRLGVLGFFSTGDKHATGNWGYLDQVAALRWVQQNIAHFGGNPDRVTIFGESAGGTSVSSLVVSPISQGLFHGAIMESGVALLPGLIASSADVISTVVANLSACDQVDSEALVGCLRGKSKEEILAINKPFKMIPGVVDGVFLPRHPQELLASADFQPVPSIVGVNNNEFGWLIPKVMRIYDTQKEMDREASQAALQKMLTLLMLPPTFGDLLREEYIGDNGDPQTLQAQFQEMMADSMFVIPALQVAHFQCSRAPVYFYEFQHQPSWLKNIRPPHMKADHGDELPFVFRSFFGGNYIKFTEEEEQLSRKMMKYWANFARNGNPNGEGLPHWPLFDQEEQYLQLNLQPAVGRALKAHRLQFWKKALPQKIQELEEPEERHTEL
Source text: (§1) (1) v = Vmax × S/(Km + S)

[2] = Hydrolase activity (kinetics and marker substrates) in human intestine microsomes
Source text: as §1

[3] = test system: AADAC; assay: Contribution of AADAC to vicagrel hydrolase activity in HIM (RAF method); assay type: in vitro ADME, human; conditions: phenacetin as probe
Source text: (§2) The RAF method was applied as the ratio of activity values to evaluate the contribution of CES2 and AADAC to vicagrel hydrolysis in HIM. […] The following formulas were used to predict the vicagrel hydrolase activities of CES2 (VCES2, HIM), and AADAC (VAADAC, HIM) in HIM:
(3) VAADAC, HIM = Vrec−AADAC × […], HIM
(§3) V rec-CES2 and V rec-AADAC are the vicagrel hydrolase activities of recombinant CES2 and AADAC, respectively. The following equations were used to calculate the contributions of CES2 and AADAC to vicagrel hydrolase activities in HIM:
(5) AADAC in HIM(%) = (VAADAC, HIM/VHIM) × 100
(§4) where the V HIM value is the observed vicagrel hydrolase activities in HIM.

[4] = test system: CES2; assay: Contribution of CES2 to vicagrel hydrolase activity in HIM (RAF method); assay type: in vitro ADME, human
Source text: as §2
(2) VCES2, HIM = Vrec−CES2 × RAFCES2, HIM
as §3
(4) CES2 in HIM(%) = (VCES2, HIM/VHIM) × 100
as §4

[5] = target: T2, AADAC (Homo sapiens, UniProt P22760); assay: Hydrolase activity by recombinant human AADAC
T2 sequence (P22760 1-399): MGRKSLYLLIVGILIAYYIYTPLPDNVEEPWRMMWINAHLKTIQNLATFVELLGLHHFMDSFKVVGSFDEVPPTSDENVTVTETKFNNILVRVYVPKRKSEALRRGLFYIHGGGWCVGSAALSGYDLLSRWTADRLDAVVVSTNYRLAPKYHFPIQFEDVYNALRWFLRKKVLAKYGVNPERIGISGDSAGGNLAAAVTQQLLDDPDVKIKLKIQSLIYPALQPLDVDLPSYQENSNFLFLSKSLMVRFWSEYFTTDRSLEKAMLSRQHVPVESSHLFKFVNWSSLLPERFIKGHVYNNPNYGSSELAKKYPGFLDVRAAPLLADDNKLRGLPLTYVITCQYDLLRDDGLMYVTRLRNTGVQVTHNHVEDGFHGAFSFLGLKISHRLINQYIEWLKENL

[6] = target: T3, CES1 (Homo sapiens, UniProt P23141); assay: Hydrolase activity by recombinant human CES1; assay type: in vitro ADME
T3 construct: purchased Cypex Ltd. (Scotland, United Kingdom)
T3 sequence (P23141 18-567): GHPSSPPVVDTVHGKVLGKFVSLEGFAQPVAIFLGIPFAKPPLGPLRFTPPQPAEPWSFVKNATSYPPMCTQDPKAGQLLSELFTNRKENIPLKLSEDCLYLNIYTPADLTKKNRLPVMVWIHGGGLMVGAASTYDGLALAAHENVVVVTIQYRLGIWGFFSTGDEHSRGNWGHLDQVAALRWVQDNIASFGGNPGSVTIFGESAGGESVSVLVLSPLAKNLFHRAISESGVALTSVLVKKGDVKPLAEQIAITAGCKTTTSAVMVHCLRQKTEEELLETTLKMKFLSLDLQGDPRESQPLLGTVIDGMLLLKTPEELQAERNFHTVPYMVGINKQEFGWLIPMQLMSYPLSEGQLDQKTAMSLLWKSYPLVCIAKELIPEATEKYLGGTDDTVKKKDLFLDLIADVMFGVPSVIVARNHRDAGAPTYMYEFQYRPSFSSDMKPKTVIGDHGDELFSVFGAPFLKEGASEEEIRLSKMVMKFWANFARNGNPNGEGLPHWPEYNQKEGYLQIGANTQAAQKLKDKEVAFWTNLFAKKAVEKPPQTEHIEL
Source text: as §1

[7] = design: method as in Qiu et al., 2013; conditions: rats and beagle dogs, ref Qiu et al., 2013, cited from earlier work
[8] = Hydrolase activity in dog intestine microsomes; assay type: in vitro ADME
Source text: as §1

[9] = Hydrolase activity (kinetics and marker substrates) in human liver microsomes; assay type: in vitro ADME
Source text: as §1

[10] = design: method as in Liu et al., 2017; conditions: healthy subjects, oral vicagrel tablets, during the sampling period; ref Liu et al., 2017; cited from earlier work
[11] = design: method as in Liu et al., 2017; conditions: healthy subjects; oral 5 mg vicagrel and 75 mg clopidogrel; ref Liu et al., 2017; cited from earlier work

Question: With `COC(=O)[C@H](c1ccccc1Cl)N1CCc2sc(OC(C)=O)cc2C1` [vicagrel, Vicagrel] as the compound, how does the microsomal CLint ([1]; human, recombinant human CES2, pH 7.4, recombinant CES2, calculated as Vmax/Km, read-out: CLint of vicagrel hydrolysis) read?
Answer: Its microsomal CLint is 46100 ± 3100 µL/min/mg.

Question: And the “Hydrolase activity (vicagrel), Vrec-CES2” value ([1]; recombinant CES2)?
Answer: Its value is 26.1 nmol/min/mg.

Question: And the “Vmax of vicagrel hydrolysis” value ([1]; recombinant CES2 0.01 mg/mL, 1 min)?
Answer: Its value is 331.2 ± 14.9 nmol/min/mg protein.

Question: What about the “Vmax of vicagrel hydrolysis” value ([2]; HIM 0.01 mg/mL, 1 min) of the same compound?
Answer: The value was 347.2 ± 6.4 nmol/min/mg protein.

Question: What about the “Hydrolase activity (vicagrel), VHIM” value ([2]; human, 1 min, pH 7.4) of the same compound?
Answer: The value was 48.0 nmol/min/mg.

Question: And the microsomal CLint ([2]; human, microsomes, pH 7.4)?
Answer: Its microsomal CLint is 53100 ± 1040 µL/min/mg.

Question: And the Km at 1 min ([2]; human, pH 7.4)?
Answer: Its Km at 1 min is 6.54 ± 0.45 µM.

Question: And the “Contribution of AADAC to vicagrel hydrolysis” value [3]?
Answer: The value was “approximately 53%”.

Question: What about the “Contribution of AADAC to vicagrel hydrolysis” value ([3]; listed as Vicagrel) of the same compound?
Answer: Its value is 53.1%.

Question: And the “Contribution of CES2 to vicagrel hydrolysis” value ([4]; HIM, RAF method, procaine as probe)?
Answer: The value was 44.2%.

Question: And the “Sum of the contributions of CES2 and AADAC to vicagrel hydrolysis” value ([4]; HIM, RAF method, CES2 plus AADAC)?
Answer: Its value is 97.3%.

Question: What about the “Calculated vicagrel hydrolase activity of CES2 in HIM (VCES2, HIM)” value ([4]; Vrec-CES2 × RAFCES2, HIM) of the same compound?
Answer: Its value is 21.2 nmol/min/mg protein.

Question: And the microsomal CLint ([5]; human, recombinant human AADAC, pH 7.4)?
Answer: Its microsomal CLint is 39000 ± 3100 µL/min/mg.

Question: What about the “Hydrolase activity (vicagrel), Vrec-AADAC” value ([5]; recombinant AADAC) of the same compound?
Answer: Its value is 21.8 nmol/min/mg.

Question: And the “Vmax of vicagrel hydrolysis” value ([5]; recombinant AADAC 0.015 mg/mL, 2 min)?
Answer: Its value is 381.7 ± 24.7 nmol/min/mg protein.

Question: And the microsomal CLint ([6]; human, recombinant human CES1, pH 7.4, recombinant CES1, calculated as Vmax/Km, read-out: CLint of vicagrel hydrolysis)?
Answer: Its microsomal CLint is 29000 ± 2300 µL/min/mg.

Question: And the “Hydrolase activity (vicagrel)” value ([6]; recombinant CES1)?
Answer: Its value is 17.3 nmol/min/mg.

Question: What about the “Vmax of vicagrel hydrolysis” value ([6]; recombinant CES1 0.01 mg/mL, 2 min) of the same compound?
Answer: The value was 264.0 ± 16.6 nmol/min/mg protein.

Question: And the “Production of H4 from vicagrel relative to clopidogrel” value ([7]; oral, same dose)?
Answer: Its value is “four to six times higher”.

Question: What about the “Production of 2-oxo-clopidogrel from vicagrel relative to clopidogrel” value [7] of the same compound?
Answer: Its value is “about six times”.

Question: What about the “Vmax of vicagrel hydrolysis” value ([8]; DIM 0.01 mg/mL, 1 min) of the same compound?
Answer: Its value is 171.4 ± 3.9 nmol/min/mg protein.

Question: What about the Km at 1 min ([8]; dog, dog intestine microsomes, pH 7.4, DIM 0.01 mg/mL, 1 min, read-out: Km of vicagrel hydrolysis) of the same compound?
Answer: The Km at 1 min was 8.37 ± 0.69 µM.

Question: And the microsomal CLint ([8]; dog, dog intestine microsomes, pH 7.4, DIM, calculated as Vmax/Km, read-out: CLint of vicagrel hydrolysis)?
Answer: Its microsomal CLint is 20500 ± 1300 µL/min/mg.

Question: And the “Hydrolase activity (vicagrel)” value ([9]; HLM)?
Answer: The value was 96.5 nmol/min/mg.

Question: And the “Vmax of vicagrel hydrolysis” value ([9]; HLM 0.01 mg/mL, 1 min)?
Answer: The value was 917.6 ± 23.5 nmol/min/mg protein.

Question: What about the Km at 1 min ([9]; human, human liver microsomes, pH 7.4, HLM 0.01 mg/mL, 1 min, formation of 2-oxo-clopidogrel, read-out: Km of vicagrel hydrolysis) of the same compound?
Answer: Its Km at 1 min is 7.18 ± 0.66 µM.

Question: What about the “Parent drug in human plasma” value [10] of the same compound?
Answer: The value was “undetectable”.

Question: What about the “Antiplatelet effects versus clopidogrel” value [11] of the same compound?
Answer: Its value is “Comparable antiplatelet effects”.

Source: publication PMC5701912, “Arylacetamide Deacetylase Is Involved in Vicagrel Bioactivation in Humans” (Frontiers in Pharmacology, 2017)
